{"source": "patent US7109215B2", "about": "“Compounds possessing neuronal activity” (Vertex Pharmaceuticals Incorporated, priority 1997, dated 2006)", "key": {"HL60/Vinc cells": {"tested_on": "HL60/Vinc cells", "experiment": "MDR sensitization (reversal) assay, doxorubicin, XTT viability", "assay_type": "cell-based, human", "settings": "compound 2.5 μM, IC50 doxorubicin alone / IC50 doxorubicin plus compound", "protocol": "(§1) We carried out multidrug resistance reversal (MDR) assays using L1210vMDRC.06 or HL60/Vinc cell lines. L1210vMDRC.06 are L1210 mouse leukemia cells transduced with the pHaMDR1/A retrovirus carrying a MDR1 cDNA, as described by Pastan et al., Proc. Natl. Acad. Sci. USA, 85, pp. 4486–4490 (1988). The L1210vMDRC.06 multidrug resistant line is a cell line that has been drug-selected by culturing transfected cells in 0.06 μg/ml colchicine. The HL60/Vinc human promyleocytic leukemia cell line is a multidrug resistant cell line derived from HL60 drug-sensitive parental cells by selection in increasing concentrations of vincristine.\nAssays using HL60/Vinc cells were performed by plating cells in 96 well microtiter plates at a concentration of 4×10^4 cells/well. The cells were then exposed to various concentrations of doxorubicin (9 nM to 6.7 μM) in the presence or absence of various compounds of this invention at various concentrations (0.5, 1.0, 2.5, 5.0 or 10 μM) as described in U. Germann et al., Anti-Cancer Drugs, 8, pp. 141–155 (1997). After culturing the cells for 3 days, their viability was quantitated using the XTT dye method to assess mitochondrial function (Roehm et al., supra). Results were expressed as a ratio of the IC50 for doxorubicin alone to the IC50 for doxorubicin plus compound. In all assays the intrinsic antiproliferative or cytotoxicity activity of the MDR inhibitors was also determined for HL60/Vinc cells."}, "FKBP": {"target": "FKBP (Homo sapiens, UniProt P62942)", "sequence (P62942 whole entry)": "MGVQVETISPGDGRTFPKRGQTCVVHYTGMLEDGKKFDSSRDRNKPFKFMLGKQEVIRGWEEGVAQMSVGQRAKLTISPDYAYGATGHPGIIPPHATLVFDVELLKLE", "experiment": "Rotamase inhibition assay (chymotrypsin-coupled PPIase assay)", "assay_type": "biochemical", "settings": "15 nM FKBP, 30 μM Suc-Ala-Leu-Pro-Phe-pNA, 15° C.", "protocol": "Inhibition of FKBP enzyme activity was determined in the PPIase assay described in S. T. Park et al., J. Biol. Chem., 267, pp. 3316–24 (1992), the disclosure of which is herein incorporated by reference. This is a chymotrypsin-coupled assay in which FKBP catalyzes the cis to trans isomerization of the Leu-Pro bond in the peptide substrate Suc-Ala-Leu-Pro-Phe-pNA. The trans form, but not the cis form, is cleavable by chymotrypsin. The release Phe-pNA was monitored by absorbance at 400 nm. Chymotrypsyn cleavage is very rapid and therefore cis-to-trans isomerization is rate-limiting.\nEach reaction mix consisted of 0.1 M Tris buffer, pH 7.8, 15 nM FKBP, 30 μM substrate and 0.5 nM to 10 μM of compound to be tested diluted in Me2SO. The mixture was incubated at 15° C. for 5 minutes and then reaction was initiated by addition of chymotrypsin (100 μg/ml final concentration) and followed spectrophotometrically for 5 minutes. Total reaction volume was 1 ml."}, "[1]": {"tested_on": "pheochromocytoma PC12 cells", "experiment": "Neurite outgrowth quantitation in PC12 cell system", "assay_type": "cell-based, rat", "settings": "for Neurite outgrowth, visual scale of 0 to 4: 1–5 ng/ml NGF, 72 hours", "protocol": "In order to directly determine the neurotrophic activity of compounds described in this invention, the neurite outgrowth assay was carried out with pheochromocytoma PC12 cells as described by Lyons et al. (1994).\nPC12 cells were maintained at 37° C. and 5% CO2 in Dulbecco's modified Eagle's medium (DMEM) supplemented with 10% heat-inactivated horse serum, 5% heat-inactivated fetal bovine serum (FBS), and 1% glutamate.\nThe cells were then plated at […] in 96 well plates coated with […] rat tail collagen and allowed to attach overnight. The medium was then replaced with DMEM, 2% heat-inactivated horse serum, 1% glutamate, 1–5 ng/ml of NGF (Sigma) and varying concentrations of the compounds of this invention (0.01 nM–10000 nM). The background control culture was administered with […] of NGF alone without compound. Positive control cultures were administered with high concentration of NGF (50 ng/ml). The cells were then incubated at 37° C. at 5% CO2 for 72 hours, fixed with 3% formaldehyde and nerve outgrowth was determined visually on a scale of 0 to 4."}, "L1210vMDRC.06 cells": {"tested_on": "L1210vMDRC.06 cells", "experiment": "MDR sensitization (reversal) assay, doxorubicin, XTT viability", "assay_type": "cell-based, mouse", "settings": "compound 2.5 μM, IC50 Dox/IC50 Dox+Inhibitor", "protocol": "as §1\nUsing L1210vMDRC.06, multidrug resistance reversal assays were conducted by plating 1×10^4 cells/well in 96 well microtiter plates and exposing them to a concentration range of doxorubicin (50 nM–10 μM) in the presence or absence of compounds of this invention (0.1, 0.25, 0.5, 1.0, or 2.5 μM) as described in U. Germann et al., Anti-Cancer Drugs, 8, pp. 125–140 (1997). After culture for 3 days, the viability of cells was quantitated using XTT dye to assess mitochondrial function [Roehm et al., J. Immunol. […] Results were determined by comparison of the IC50 for doxorubicin alone to the IC50 for doxorubicin+compound. An MDR ratio was calculated (IC50 Dox/IC50 Dox+Inhibitor) and the integer value used for comparison of compound potencies."}}, "note": "Marks after values point to notes of the source that are not given here.", "data": [{"smiles": "COc1ccc(S(=O)(=O)N(C)[C@@H](Cc2ccccc2)C(=O)N(C)C(CCCc2cccnc2)CCCc2cccnc2)cc1", "note": "[Compound 18]", "values": [{"measurement": "MDR Ratio", "setting": "HL60/Vinc cells", "result": 10.8}, {"measurement": "Ki", "setting": "FKBP", "result": "> 50", "unit": "µM"}, {"measurement": "Neurite outgrowth, visual scale of 0 to 4", "setting": "[1]; compound 10 nM", "result": "3*"}, {"measurement": "Neurite outgrowth, visual scale of 0 to 4", "setting": "[1]; compound 100 nM", "result": "4*"}, {"measurement": "Neurite outgrowth, visual scale of 0 to 4", "setting": "[1]; compound 1000 nM", "result": "4*"}]}, {"smiles": "O=C(NCc1cccnc1)C1CCCCN1", "note": "(stereo not drawn) [Compound 103]", "values": [{"measurement": "MDR Ratio", "setting": "HL60/Vinc cells", "result": 0.7}, {"measurement": "Ki", "setting": "FKBP", "result": "> 50", "unit": "µM"}, {"measurement": "Neurite outgrowth over background control cultures (in words)", "setting": "[1]; PC12 assay", "result": "Negative results"}, {"measurement": "Neurite outgrowth, visual scale of 0 to 4", "setting": "[1]; compound 10 nM", "result": 0}, {"measurement": "Neurite outgrowth, visual scale of 0 to 4", "setting": "[1]; compound 100 nM", "result": 0}, {"measurement": "Neurite outgrowth, visual scale of 0 to 4", "setting": "[1]; compound 1000 nM", "result": 0}]}, {"smiles": "O=C(NCc1ccncc1)C1CCCCN1", "note": "(stereo not drawn) [Compound 104]", "values": [{"measurement": "MDR Ratio", "setting": "HL60/Vinc cells", "result": 0.6}, {"measurement": "Ki", "setting": "FKBP", "result": "> 50", "unit": "µM"}, {"measurement": "Neurite outgrowth, visual scale of 0 to 4", "setting": "[1]; compound 0.01 nM", "result": "3*"}, {"measurement": "Neurite outgrowth, visual scale of 0 to 4", "setting": "[1]; compound 0.1 nM", "result": "3*"}, {"measurement": "Neurite outgrowth, visual scale of 0 to 4", "setting": "[1]; compound 1 nM", "result": "2*"}, {"measurement": "Neurite outgrowth, visual scale of 0 to 4", "setting": "[1]; compound 10 nM", "result": "2*"}, {"measurement": "Neurite outgrowth, visual scale of 0 to 4", "setting": "[1]; compound 100 nM", "result": "4*"}, {"measurement": "Neurite outgrowth, visual scale of 0 to 4", "setting": "[1]; compound 1000 nM", "result": "3*"}, {"measurement": "Neurite outgrowth, visual scale of 0 to 4", "setting": "[1]; compound 10000 nM", "result": "4*"}]}, {"smiles": "COc1cc(C(=O)CN2CCCCC2C(=O)OC(CCCc2cccnc2)CCCc2cccnc2)cc(OC)c1OC", "note": "(stereo not drawn) [Compound 105]", "values": [{"measurement": "Neurite outgrowth, visual scale of 0 to 4", "setting": "[1]; compound 10 nM", "result": 4}, {"measurement": "Neurite outgrowth, visual scale of 0 to 4", "setting": "[1]; compound 100 nM", "result": 4}, {"measurement": "Neurite outgrowth, visual scale of 0 to 4", "setting": "[1]; compound 1000 nM", "result": 0}, {"measurement": "MDR Ratio", "setting": "L1210vMDRC.06 cells", "result": 10}]}, {"smiles": "CN(CCc1ccccn1)C(=O)C1CCCCN1", "note": "(stereo not drawn) [Compound 106]", "values": [{"measurement": "MDR Ratio", "setting": "HL60/Vinc cells", "result": 1.2}, {"measurement": "Ki", "setting": "FKBP", "result": "> 50", "unit": "µM"}, {"measurement": "Neurite outgrowth, visual scale of 0 to 4", "setting": "[1]; compound 100 nM", "result": "1*"}, {"measurement": "Neurite outgrowth, visual scale of 0 to 4", "setting": "[1]; compound 1000 nM", "result": "2*"}]}, {"smiles": "CNC(Cc1ccccc1)C(=O)N(C)CCc1ccccn1", "note": "(stereo not drawn) [Compound 107]", "values": [{"measurement": "MDR Ratio", "setting": "HL60/Vinc cells", "result": 0.9}, {"measurement": "Ki", "setting": "FKBP", "result": "> 25", "unit": "µM"}, {"measurement": "Neurite outgrowth, visual scale of 0 to 4", "setting": "[1]; compound 100 nM", "result": "3*"}, {"measurement": "Neurite outgrowth, visual scale of 0 to 4", "setting": "[1]; compound 1000 nM", "result": "0*"}]}, {"smiles": "CNC(Cc1ccccc1)C(=O)N(C)CCCc1cccnc1", "note": "(stereo not drawn) [Compound 108]", "values": [{"measurement": "MDR Ratio", "setting": "HL60/Vinc cells", "result": 0.4}, {"measurement": "Ki", "setting": "FKBP", "result": "> 25", "unit": "µM"}, {"measurement": "Neurite outgrowth, visual scale of 0 to 4", "setting": "[1]; compound 10 nM", "result": 0}, {"measurement": "Neurite outgrowth, visual scale of 0 to 4", "setting": "[1]; compound 100 nM", "result": 3}, {"measurement": "Neurite outgrowth, visual scale of 0 to 4", "setting": "[1]; compound 1000 nM", "result": 0}]}, {"smiles": "CN(CCCc1cccnc1)C(=O)C1CCCCN1", "note": "(stereo not drawn) [Compound 110]", "values": [{"measurement": "MDR Ratio", "setting": "HL60/Vinc cells", "result": 1.1}, {"measurement": "Ki", "setting": "FKBP", "result": "> 25", "unit": "µM"}, {"measurement": "Neurite outgrowth, visual scale of 0 to 4", "setting": "[1]; compound 100 nM", "result": "3*"}, {"measurement": "Neurite outgrowth, visual scale of 0 to 4", "setting": "[1]; compound 1000 nM", "result": "0*"}]}, {"smiles": "CN1CCCCC1C(=O)OC(CCCc1ccncc1)CCCc1cccnc1", "note": "(stereo not drawn) [Compound 111]", "values": [{"measurement": "MDR Ratio", "setting": "HL60/Vinc cells", "result": 1.2}, {"measurement": "Ki", "setting": "FKBP", "result": "> 50", "unit": "µM"}, {"measurement": "Neurite outgrowth, visual scale of 0 to 4", "setting": "[1]; compound 0.01 nM", "result": "4*"}, {"measurement": "Neurite outgrowth, visual scale of 0 to 4", "setting": "[1]; compound 0.1 nM", "result": "4*"}, {"measurement": "Neurite outgrowth, visual scale of 0 to 4", "setting": "[1]; compound 1 nM", "result": "3*"}, {"measurement": "Neurite outgrowth, visual scale of 0 to 4", "setting": "[1]; compound 10 nM", "result": "2**"}, {"measurement": "Neurite outgrowth, visual scale of 0 to 4", "setting": "[1]; compound 100 nM", "result": "4**"}, {"measurement": "Neurite outgrowth, visual scale of 0 to 4", "setting": "[1]; compound 1000 nM", "result": "4**"}, {"measurement": "Neurite outgrowth, visual scale of 0 to 4", "setting": "[1]; compound 10000 nM", "result": "4*"}]}, {"smiles": "CC(C)CN1CCCCC1C(=O)OC(CCCc1ccncc1)CCCc1cccnc1", "note": "(stereo not drawn) [Compound 112]", "values": [{"measurement": "MDR Ratio", "setting": "HL60/Vinc cells", "result": 2.4}, {"measurement": "Ki", "setting": "FKBP", "result": "> 50", "unit": "µM"}, {"measurement": "Neurite outgrowth, visual scale of 0 to 4", "setting": "[1]; compound 10 nM", "result": "3*"}, {"measurement": "Neurite outgrowth, visual scale of 0 to 4", "setting": "[1]; compound 100 nM", "result": "4*"}, {"measurement": "Neurite outgrowth, visual scale of 0 to 4", "setting": "[1]; compound 1000 nM", "result": "3*"}]}, {"smiles": "O=C(OC(CCCc1ccncc1)CCCc1cccnc1)C1CCCCN1Cc1ccncc1", "note": "(stereo not drawn) [Compound 113]", "values": [{"measurement": "MDR Ratio", "setting": "HL60/Vinc cells", "result": 2.3}, {"measurement": "Ki", "setting": "FKBP", "result": "> 50", "unit": "µM"}, {"measurement": "Neurite outgrowth, visual scale of 0 to 4", "setting": "[1]; compound 10 nM", "result": "3*"}, {"measurement": "Neurite outgrowth, visual scale of 0 to 4", "setting": "[1]; compound 100 nM", "result": "4*"}, {"measurement": "Neurite outgrowth, visual scale of 0 to 4", "setting": "[1]; compound 1000 nM", "result": "4*"}]}]}
